Test results reported in ChEMBL document CHEMBL4390668, “Discovery and Structural Optimization of Acridones as Broad-Spectrum Antimalarials” (J Med Chem, 2019).
Calls of active or inactive are those of the source. The rule behind the calls is not given here.

Legend:
[1] = Mean residence time in ICR mouse liver at 80 mg/kg, po administered as single dose; assay type: ADME, organism-based
[2] = Tmax in ICR mouse plasma at 80 mg/kg, po administered as single dose; assay type: ADME, organism-based
[3] = AUC (0 to last) in ICR mouse plasma at 80 mg/kg, po administered as single dose; assay type: ADME, organism-based; set-up: dose 80 mg/kg, route oral, time 0 - last
[4] = Cmax in ICR mouse liver at 80 mg/kg, po administered as single dose; assay type: ADME, organism-based; set-up: dose 80 mg/kg, route oral
[5] = Cmax in ICR mouse plasma at 80 mg/kg, po administered as single dose; assay type: ADME, organism-based; set-up: dose 80 mg/kg, route oral
[6] = Mean residence time in ICR mouse plasma at 80 mg/kg, po administered as single dose; assay type: ADME, organism-based
[7] = system: Plasmodium falciparum; assay: Antimalarial activity against drug-resistant Plasmodium falciparum 3D7 harboring A82T/V259L double mutant infected in human erythrocytes after 72 hrs by SYBR green 1-based fluorescence assay; assay type: functional, organism-based; settings: 3D7, 72 h
[8] = system: Plasmodium berghei; assay: Antimalarial activity against luciferase-expressing Plasmodium berghei ANKA 676m1cl1 sporozoites infected in human HepG2A16 cells measured after 45 hrs by luciferase-luciferin based reporter assay; assay type: functional, organism-based; settings: ANKA 676m1cl1, HepG2A16, 45 h
[9] = system: Plasmodium falciparum; assay: Antimalarial activity against drug-resistant Plasmodium falciparum Dd2 harboring M133I/A138T double mutant infected in human erythrocytes after 72 hrs by SYBR green 1-based fluorescence assay; assay type: functional, organism-based; settings: Dd2, 72 h
[10] = system: Plasmodium falciparum; assay: Antimalarial activity against multidrug-resistant Plasmodium falciparum Dd2 infected in human erythrocytes by SYBR green 1-based fluorescence assay; assay type: functional, organism-based
[11] = Apparent volume of distribution in ICR mouse plasma at 80 mg/kg, po administered as single dose; assay type: ADME, organism-based; settings: in vivo
[12] = AUC (0 to infinity) in ICR mouse liver at 80 mg/kg, po administered as single dose; assay type: ADME, organism-based; set-up: dose 80 mg/kg, route oral, time infinity
[13] = AUC (0 to last) in ICR mouse liver at 80 mg/kg, po administered as single dose; assay type: ADME, organism-based; set-up: dose 80 mg/kg, route oral, time 0 - last
[14] = Apparent elimination half life in ICR mouse plasma at 80 mg/kg, po administered as single dose; assay type: ADME, organism-based
[15] = Apparent clearance in ICR mouse plasma at 80 mg/kg, po administered as single dose; assay type: ADME, organism-based; settings: read-out: CL(app) (converted)
[16] = system: Plasmodium falciparum; assay: Antimalarial activity against Plasmodium falciparum 3D7 infected in human erythrocytes after 72 hrs by SYBR green 1-based fluorescence assay; assay type: functional, organism-based; settings: 3D7, 72 h
[17] = Half life in mouse liver microsomes at 1 uM by LC-MS analysis; assay type: ADME, Microsome
[18] = system: HepG2; assay: Cytotoxicity against human HepG2 cells measured after 24 to 36 hrs by resazurin dye based fluorescence assay; assay type: cell-based
[19] = system: Plasmodium yoelii; assay: Antimalarial activity against blood stage Plasmodium yoelii MR4 MRA-428 infected in CF1 mouse assessed as suppression of parasitemia administered once daily via oral gavage for 4 days starting from 24 hrs post-infection and measured post-last dose by Giemsa-staining based microscopic analysis; assay type: functional
[20] = system: Plasmodium falciparum; assay: Inhibition of Plasmodium falciparum cytochrome b-c1
[21] = Tmax in ICR mouse liver at 80 mg/kg, po administered as single dose; assay type: ADME, organism-based
[22] = system: Plasmodium falciparum; assay: Antimalarial activity against chloroquine-sensitive Plasmodium falciparum D6 infected in human erythrocytes by SYBR green 1-based fluorescence assay; assay type: functional, organism-based
[23] = system: Plasmodium berghei; assay: Antimalarial activity against liver stage luciferase-expressing Plasmodium berghei ANKA 676m1cl1 sporozoites infected in C57BL/6 mouse assessed as suppression of parasitemia at 40 to 160 mg/kg, po pretreated for 1 day followed by parasite infection and subsequent compound dosing for 2 days measured at 24 to 48 hrs post-infection by luciferin-based real-time imaging analysis; assay type: functional
[24] = Selectivity index, ratio of IC50 for human HepG2 cells to IC50 for chloroquine-sensitive Plasmodium falciparum D6 infected in human erythrocytes; assay type: toxicity, cell-based; settings: read-out: Ratio IC50
[25] = system: Plasmodium falciparum; assay: Antimalarial activity against atovaquone-resistant Plasmodium falciparum Tm90-C2B infected in human erythrocytes by SYBR green 1-based fluorescence assay; assay type: functional, organism-based
[26] = Half life in human liver microsomes at 1 uM by LC-MS analysis; assay type: ADME, Microsome
[27] = Apparent elimination half life in ICR mouse liver at 80 mg/kg, po administered as single dose; assay type: ADME, organism-based; settings: read-out: betat1/2(app) (converted)
[28] = system: Plasmodium falciparum; assay: Antimalarial activity against multidrug-resistant Plasmodium falciparum 7G8 infected in human erythrocytes by SYBR green 1-based fluorescence assay; assay type: functional, organism-based
[29] = system: Plasmodium falciparum; assay: Antimalarial activity against drug-resistant Plasmodium falciparum Dd2 harboring V259L mutant infected in human erythrocytes after 72 hrs by SYBR green 1-based fluorescence assay; assay type: functional, organism-based; settings: Dd2, 72 h
[30] = AUC (0 to infinity) in ICR mouse plasma at 80 mg/kg, po administered as single dose; assay type: ADME, organism-based; set-up: dose 80 mg/kg, route oral, time infinity
[31] = Mutagenicity in Salmonella typhimurium TA98 assessed as increase in revertant colonies up to 10 uM in absence of S9 fraction by Ames test; assay type: toxicity; settings: salmonella enterica subsp. enterica serovar typhimurium
[32] = target: hERG (KCNH2) (Homo sapiens, UniProt Q12809); assay: Inhibition of human ERG expressed in CHOK1 cells at 10 uM by automated patch clamp method relative to control; assay type: cell-based; settings: CHO-K1 cells that express hERG
Chain of hERG (KCNH2) (Q12809 whole entry): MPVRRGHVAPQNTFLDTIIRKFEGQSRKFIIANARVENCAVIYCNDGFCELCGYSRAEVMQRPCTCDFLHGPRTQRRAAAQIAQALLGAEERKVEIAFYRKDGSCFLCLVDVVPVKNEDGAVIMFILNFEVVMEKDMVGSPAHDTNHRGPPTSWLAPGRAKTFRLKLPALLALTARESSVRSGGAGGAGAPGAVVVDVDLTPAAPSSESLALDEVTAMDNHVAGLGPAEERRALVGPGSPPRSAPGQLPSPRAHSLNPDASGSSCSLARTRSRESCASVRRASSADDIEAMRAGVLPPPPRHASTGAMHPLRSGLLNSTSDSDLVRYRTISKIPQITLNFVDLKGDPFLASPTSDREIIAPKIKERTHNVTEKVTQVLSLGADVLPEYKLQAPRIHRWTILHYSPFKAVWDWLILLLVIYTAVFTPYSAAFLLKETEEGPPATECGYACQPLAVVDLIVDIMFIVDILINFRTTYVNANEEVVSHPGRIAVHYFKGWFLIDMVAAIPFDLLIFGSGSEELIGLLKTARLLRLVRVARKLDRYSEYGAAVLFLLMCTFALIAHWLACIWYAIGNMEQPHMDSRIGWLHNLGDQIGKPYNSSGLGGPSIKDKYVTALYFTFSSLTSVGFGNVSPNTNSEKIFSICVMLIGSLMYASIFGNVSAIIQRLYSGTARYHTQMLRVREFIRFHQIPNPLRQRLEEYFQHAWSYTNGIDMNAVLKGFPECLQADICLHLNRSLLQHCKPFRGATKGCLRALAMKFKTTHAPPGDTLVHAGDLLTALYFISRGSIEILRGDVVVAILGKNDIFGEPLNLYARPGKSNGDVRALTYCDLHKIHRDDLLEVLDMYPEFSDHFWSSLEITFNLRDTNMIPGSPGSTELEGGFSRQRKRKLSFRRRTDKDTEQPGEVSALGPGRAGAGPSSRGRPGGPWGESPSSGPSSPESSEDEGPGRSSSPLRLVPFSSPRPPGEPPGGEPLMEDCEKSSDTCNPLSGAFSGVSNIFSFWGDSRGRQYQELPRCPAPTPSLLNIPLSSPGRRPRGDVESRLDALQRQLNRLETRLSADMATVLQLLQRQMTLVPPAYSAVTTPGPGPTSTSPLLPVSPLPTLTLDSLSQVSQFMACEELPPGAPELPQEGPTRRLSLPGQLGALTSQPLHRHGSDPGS

[33] = Toxicity in CF1 mouse infected with blood stage Plasmodium yoelii MR4 MRA-428 assessed as behavioral changes at 80 mg/kg, po administered once daily via gavage for 4 days starting from for 4 days starting from 24 hrs post-infection and measured daily during compound dosing; assay type: organism-based; settings: in vivo
[34] = system: Plasmodium berghei; assay: Antimalarial activity against liver stage luciferase-expressing Plasmodium berghei ANKA 676m1cl1 sporozoites infected in C57BL/6 mouse assessed as suppression of parasitemia at 10 mg/kg, po pretreated for 1 day followed by parasite infection and subsequent compound dosing for 2 days measured at 24 to 48 hrs post-infection by luciferin-based real-time imaging analysis; assay type: functional
[35] = Toxicity in CF1 mouse infected with blood stage Plasmodium yoelii MR4 MRA-428 assessed as clinical toxicity at 80 mg/kg, po administered once daily via gavage for 4 days starting from for 4 days starting from 24 hrs post-infection and measured daily during compound dosing; assay type: organism-based; settings: in vivo
[36] = system: Plasmodium yoelii; assay: Antimalarial activity against blood stage Plasmodium yoelii MR4 MRA-428 infected in CF1 mouse assessed as suppression of parasitemia at 80 mg/kg, po administered once daily via gavage for 4 days starting from 24 hrs post-infection and measured at weekly intervals for 28 days by Giemsa-staining based microscopic analysis; assay type: functional
[37] = Mutagenicity in Salmonella typhimurium TA100 assessed as increase in revertant colonies up to 10 uM in absence of S9 fraction by Ames test; assay type: toxicity; settings: salmonella enterica subsp. enterica serovar typhimurium
[38] = Mutagenicity in Salmonella typhimurium TA100 assessed as increase in revertant colonies up to 10 uM in presence of S9 fraction by Ames test; assay type: toxicity, subcellular; settings: salmonella enterica subsp. enterica serovar typhimurium
[39] = system: Plasmodium berghei; assay: Antimalarial activity against blood stage luciferase-expressing Plasmodium berghei ANKA 676m1cl1 sporozoites infected in C57BL/6 mouse assessed as suppression of parasitemia at 10 mg/kg, po pretreated for 1 day followed by parasite infection and subsequent compound dosing for 2 days measured up to 30 days post-infection by YOYO1 staining based flow cytometry; assay type: functional
[40] = Mutagenicity in Salmonella typhimurium TA98 assessed as increase in revertant colonies up to 10 uM in presence of S9 fraction by Ames test; assay type: toxicity, subcellular; settings: salmonella enterica subsp. enterica serovar typhimurium

Row | SMILES | MRT [1] [h] | AUC(0-t) [3] [µg·h/mL] | Cmax [4] [ng/mL] | MRT [6] [h] | IC50 [7] [nM] | IC50 [8] [nM] | IC50 [9] [nM] | IC50 [10] [nM] | Vz [11] [L/kg] | AUC(0-inf) [12] [µg·h/mL] | AUC(0-t) [13] [µg·h/mL] | IC50 [16] [nM] | half-life at 1 µM [17] [h] | IC50 [18] [nM] | ED50 [19] [mg/kg.day] | inhibition [20] | Tmax [21] [h] | IC50 [22] [nM] | selectivity ratio [24] | IC50 [25] [nM] | further results
1 | CCN(CC)CCOc1ccc2c(=O)c3ccc(Cl)cc3[nH]c2c1 | 5.59 | 5.31 | 193000 | 3.41 | 1640 | 113 | 1070 | 41 to 117 | 37.689 | 1460 | 1460 | 84 | > 1 | 36400 | 48 | inactive | 1 | 32 | 1140 | 589 | Tmax ([2]; ICR, plasma, read-out: Tmax): 2 h; Cmax ([5]; ICR, plasma, read-out: Cmax): 1360 ng/mL; half-life ([14]; ICR, plasma, read-out: betat1/2(app) (converted)): 1.9 h; CL/F [15]: 230 mL/min/kg; ED90 [19]: 72 mg/kg.day; Activity [23]: 100%; half-life at 1 µM [26]: > 1 h; half-life [27]: 6.7 h; IC50 [28]: 38 nM; IC50 [29]: 2120 nM; AUC(0-inf) ([30]; ICR, plasma): 5.81 µg·h/mL
2 | CCCN(CCC)CCOc1ccc2c(=O)c3c(F)cc(F)cc3[nH]c2c1 | 8.9 | 7.56 | 3930 | 10.2 | 17 | 1.4 | 0.86 | 0.0003 to 0.23 | 657.604 | 102 | 63.9 | 0.3 | 0.25 | 42800 | 1.12 | inactive | 7 | 0.0003 | > 100000 | 6.8 | Activity [31]: Non-Toxic; Tmax ([2]; in vivo): 7 h; Cmax ([5]; in vivo): 99 ng/mL; inhibition at 10 µM [32]: 65%; Activity [33]: Non-Toxic; Activity [34]: 100%; Activity [35]: Non-Toxic; betat1/2(app) ([14]; in vivo): 54.24 h; Activity [36]: 100%; half-life at 1 µM [26]: 0.267 h; half-life [27]: 13.8 h; Activity [37]: Non-Toxic; Activity [38]: Non-Toxic; Activity [39]: 100%; IC50 [28]: 0.0003 nM; Activity [40]: Non-Toxic; IC50 [29]: 5.5 nM; AUC ([30]; in vivo): 56.485 µg·h/mL
